# According to the supplement of paper PMC10307832:
# Columns and labels:
# Experiment in all cases: relative viability (nuclei count vs DMSO), 5 days (fraction); higher = more cells survive
# QS11 + Pictilisib = compound: C1CC2=C(C1)C=C(C=C2)OC3=NC(=C4C(=N3)N(C=N4)CC5=CC=C(C=C5)C6=CC=CC=C6)N[C@@H](CC7=CC=CC=C7)CO [QS11] + CS(=O)(=O)N1CCN(Cc2cc3nc(-c4cccc5[nH]ncc45)nc(N4CCOCC4)c3s2)CC1 [Pictilisib] (partner 1 µM)
# Method in brief: (§1)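 Values are medians from duplicate plates. Each reflects relative viability, defined as the nuclei count of treated wells over that of vehicle wells. Lung cancer cell lines in 1536-well plates were pin-tool dosed one day after seeding with one drug alone or with a fixed anchor-drug dose plus five library-drug doses (not always all listed) in √10 steps, then fixed, stained and imaged at 4× after 5 days.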
# AZ628 + Foretinib = compound: CC1=C(C=C(C=C1)NC(=O)C2=CC(=CC=C2)C(C)(C)C#N)NC3=CC4=C(C=C3)N=CN(C4=O)C [AZ628] + COc1cc2c(Oc3ccc(NC(=O)C4(C(=O)Nc5ccc(F)cc5)CC4)cc3F)ccnc2cc1OCCCN1CCOCC1 [Foretinib] (partner 0.25 µM)
# Method in brief: as §1
# AZ628 + Phenformin = compound: CC1=C(C=C(C=C1)NC(=O)C2=CC(=CC=C2)C(C)(C)C#N)NC3=CC4=C(C=C3)N=CN(C4=O)C [AZ628] + N=C(N)NC(=N)NCCc1ccccc1 [Phenformin] (partner 250 µM)
# Method in brief: as §1
# [1] = compound: C[As](C)SC[C@H](NC(=O)CC[C@H](N)C(=O)O)C(=O)NCC(=O)O [Darinaparsin] + CC1(C)CCC(c2ccc(Cl)cc2)=C(CN2CCN(c3ccc(C(=O)NS(=O)(=O)c4ccc(N[C@H](CCN5CCOCC5)CSc5ccccc5)c(S(=O)(=O)C(F)(F)F)c4)cc3)CC2)C1 [Navitoclax] (partner 0.5 µM)
# Method in brief: as §1
cell line,measurement,setting,value
LCLC-97TM1,relative viability,QS11 + Pictilisib; first compound 0.08 µM,0.14
same,relative viability,QS11 + Pictilisib; first compound 0.253 µM,0.193
same,relative viability,QS11 + Pictilisib; first compound 0.8 µM,0.209
same,relative viability,QS11 + Pictilisib; first compound 2.53 µM,0.302
same,relative viability,QS11 + Pictilisib; first compound 8 µM,0.289
same,relative viability,AZ628 + Foretinib; first compound 0.08 µM,0.95
same,relative viability,AZ628 + Foretinib; first compound 0.253 µM,0.867
same,relative viability,AZ628 + Foretinib; first compound 0.8 µM,0.805
same,relative viability,AZ628 + Foretinib; first compound 2.53 µM,0.682
same,relative viability,AZ628 + Foretinib; first compound 8 µM,0.301
same,relative viability,AZ628 + Phenformin; first compound 0.08 µM,0.55
same,relative viability,AZ628 + Phenformin; first compound 0.253 µM,0.459
same,relative viability,AZ628 + Phenformin; first compound 0.8 µM,0.421
same,relative viability,AZ628 + Phenformin; first compound 2.53 µM,0.457
same,relative viability,AZ628 + Phenformin; first compound 8 µM,0.308
same,relative viability,[1]; first compound 0.08 µM,0.383
same,relative viability,[1]; first compound 0.8 µM,0.947
same,relative viability,[1]; first compound 2.53 µM,0.398
same,relative viability,[1]; first compound 8 µM,0.579
